Measurements from patent publication US20230390296A1, “NOVEL TREATMENT AND PREVENTION OF SARCOPENIA-RELATED DISEASES” (KEIO UNIVERSITY, priority 2020, published 2023).
Entries after “also recorded” stand apart in the source; their conditions may differ.

What was measured:
mouse bones = assay: Bone density (DEXA or ultrasound); format: in vivo; details: administered versus non-administered mice
Method: This Example tested bone density for mice administered with OK-1 and mice without administration of OK-1 in order to investigate the effect of OK-1 on mouse bones. Bone density was measured using DEXA or ultrasound.
This Example tested bone density for mice administered with C-82 and mice without administration of C-82 in order to investigate the effect of C-82 on mouse bones. Bone density was measured using DEXA or ultrasound.

old mice (C57BL/6J) = assay: Treadmill test of muscle strength (endurance) in young and old mice; format: in vivo, mouse
From the text: Decrease in endurance in old mice In order to confirm that a decrease in muscle strength is observed in mouse models (C57BL/6J) (purchased from Oriental Yeast), the muscle strength (endurance) in 15-week old young mice and 79-week-old old mice was investigated in a treadmill test in accordance with the following (FIG. 1A). Prior to recording the performance, mice were trained for 3 days to acclimate the mice to the equipment. Electric stimulation grid was adjusted to 1 mA, and the gradient was set to 15 degrees. On the first day of training, mice were induced to walk for 10 minutes at a rate of 10 m/minute, allowed to rest for 10 minutes, and then induced to walk for 10 minutes at a rate of 10 m/minute on a treadmill. On day 2 and day 3, the first two steps were the under the same conditions as day 1, and then the mice were induced to start walking at 10 m/minute. The speed was increased by 1 m/minute until reaching the maximum speed of 20 m/minute. On day 4, the maximum exercise endurance was measured. Six mice were placed on a treadmill, which was started at a belt speed of 5 m/minute for 5 minutes to let the mice warm up. The speed was increased 1 m/minute until reaching the maximum speed of 20 m/minute. After making the mice run for 5 minutes, the speed was increased from 20 m/minute to 21 m/minute for 10 minutes. The mice were then forced to run at 22 m/minute until stalling on the electric stimulation grid for 10 seconds. The distance traveled until stalling for 10 seconds was measured.
(§1) OK-1 manufactured in Manufacturing Example 1 was intraperitoneally administered to young and old mice twice a week over three months. The dosage was 20 mg/kg/day.
74-week old mice (C57B16/J) were purchased from Oriental Yeast. […] Muscle strength (endurance) and grip strength of mice administered with C-82 were then measured through a treadmill test and smart grip strength meter for rats and mice (Muromachi Kikai Co., Ltd.), respectively. […]

[1] = test system: ALS mouse models (e.g., SOD1G93A mice); assay: ALS mouse model; format: in vivo; details: administered versus non-administered group
Method: ALS mouse models (e.g., SOD1G93A mice) were divided into two groups. OK was administered to one of the groups, and OK was not administered to the other group.

sarcopenia mouse models [2] = assay: Biochemical test on organ (creatine, IL-6, cholesterol etc. concentrations); format: in vivo; details: administered versus non-administered sarcopenia mouse models
Method: Mouse models were divided into two groups. The creatine concentration, IL-6 concentration, and cholesterol concentration were measured for sarcopenia mouse models administered with OK-1 and sarcopenia mouse models without administration of OK-1.
Mouse models were divided into two groups. The creatine concentration, IL-6 concentration, cholesterol concentration, UN (urea nitrogen is a biomarker that can predict the dysfunction of kidney or urinary system) concentration, and UA (uric acid is a biomarker for kidney or liver function) concentration were measured for sarcopenia mouse models administered with C-82 and sarcopenia mouse models without administration of C-82.

[3] = Body weight and behavior during the dosing period; format: in vivo, mouse; details: intraperitoneal, twice a week over three months, 20 mg/kg/day; young and old mice
Method: as §1

sarcopenia mouse models [4] = assay: Brain function behavioral tests (Barnes maze, fear conditioning, object recognition, open field, social behavior); format: in vivo; details: administered versus non-administered sarcopenia mouse models
Method: (§2) Mouse models were divided into two groups. Short term memory, long term memory, depression, activity level, social interaction, cognitive ability, etc., were tested using a Barnes maze, fear conditioning test, object recognition test, open field test, social behavior test (Crawley version), etc. on sarcopenia mouse models administered with OK-1 and sarcopenia mouse models without administration of OK-1.
These tests are described in http://www.fujita-hu.ac.jp/ to smedsci/behaviorcore/equipment/index.html, Barnes maze, a useful task to assess spatial reference memory in the mice (doi: 10.1038/nprot.2007.390), etc., which can be suitably referenced and practiced.
as §2, with “C-82” for “OK-1”, “C-82.” for “OK-1.”
These tests are described in http://www.fujita-hu.ac.jp/to smedsci/behaviorcore/equipment/index.html, Barnes maze, a useful task to assess spatial reference memory in the mice (doi: 10.1038/nprot.2007.390), etc., which can be suitably referenced and practiced.

sarcopenia mouse models [5] = assay: NTX (cross linked N-telopeptide of type I collagen) concentration; format: in vivo; details: administered versus non-administered sarcopenia mouse models
Method: Mouse models were divided into two groups. The NTX (cross linked N-telopeptide of type I collagen) concentration was measured for sarcopenia mouse models administered with OK-1 and sarcopenia mouse models without administration of OK-1.
Mouse models were divided into two groups. The NTX (cross linked N-telopeptide of type I collagen) concentration was measured for sarcopenia mouse models administered with C-82 and sarcopenia mouse models without administration of C-82.

C2C12 cells = assay: Gene expression levels in treated cultured cells; format: cell-based, mouse
Method: Mouse striated muscle derived cells, i.e., C2C12 cells, were cultured and treated with OK-1, ICG-001, or C-82. Gene expression levels of cells treated with OK-1, ICG-001, or C-82, and untreated cells are compared.

old mice = assay: Muscle mass by MRI (volume of right gastrocnemius muscle/soleus muscle), with/without treadmill exercise; format: in vivo, mouse
Method: OK-1 was then intraperitoneally administered to each mouse twice a week at 20 mg/kg/day over 8 weeks (i.e., until reaching 23 week old and 88 week old, respectively). Treadmill exercise was conducted three times a week at 8 m/minute for 5 minutes→15 m/minute for 35 minutes while administering OK-1 twice a week at 20 mg/kg/day over 5 weeks (i.e., until reaching 28 week old and 93 week old, respectively). The muscle mass was then measured with the following equipment and conditions through MRI (FIG. 1B). MRI (MRminiSA1545, Japan REDOX) (magnetic flux density: 1.5 tesla (permanent magnet) (temporal resolution: 100 ns) was used to capture images of the lower limbs of the mice. The recovered data was converted into dicom data, and the volume of right gastrocnemius muscle/soleus muscle was quantified with Osirix Lite.

[6] = test system: Mice induced to be obese by feeding high fat feed; assay: High fat feed obese mice (metabolism); format: in vivo, mouse; details: administered versus non-administered group
Method: Mice induced to be obese by feeding high fat feed were divided into two groups. OK was administered to one of the groups, and OK was not administered to the other group.

## C[C@H]1[C@H]2N(C(=O)CN(C)N2C(=O)NCc2ccccc2)[C@@H](Cc2ccc(OP(=O)(O)O)cc2)C(=O)N1Cc1cccc2cccnc12 [OK-1]
Mouse bones
  bone density: bone density is improved
Old mice (C57BL/6J); intraperitoneal, twice a week over three months, 20 mg/kg/day, young (15-week) and old (79-week) mice
  muscle strength (endurance) through a treadmill test: increase in muscle strength due to OK-1 administration, which is specific to old mice
[1]
  ALS: ALS is improved
Sarcopenia mouse models [2]
  muscle (from creatine, IL-6 and cholesterol concentrations): muscle improves
[3]
  change in body weight and behavioral abnormality during the dosing period: a significant change in body weight and behavioral abnormality were not observed
Sarcopenia mouse models [4]
  short term memory, long term memory, depression, activity level, social interaction, cognitive ability: short term memory, long term memory, depression, activity level, social interaction, and cognitive ability are improved
Sarcopenia mouse models [5]
  osteoporosis (from NTX concentration): osteoporosis is improved
C2C12 cells
  gene expression levels versus untreated cells: change in gene expression similar to Example 2
Old mice; 20 mg/kg/day twice a week plus treadmill exercise three times a week over 5 weeks
  muscle mass (MRI), combined use of administration with exercise: muscle mass significantly recovers synergistically
Old mice; intraperitoneal 20 mg/kg/day twice a week over 8 weeks, then 5 further weeks
  muscle mass (MRI): increases muscle mass in old mice
[6]
  metabolism: metabolism is improved

## C[C@H]1[C@H]2N(C(=O)CN(C)N2C(=O)NCc2ccccc2)[C@@H](Cc2ccc(O)cc2)C(=O)N1Cc1cccc2cccnc12 [C-82, (6S,9S)—N-benzyl-6-(4-hydroxybenzyl)-2,9-dimethyl-4,7-dioxo-8-(quinolin-8-ylmethyl)hexahydro-2H-pyrazino[2,1-c][1,2,4]triazine-1(6H)-carboxamide]
Mouse bones
  bone density: bone density is improved
Old mice (C57BL/6J); 74-week old mice, 7 mg/kg and 20 mg/kg intraperitoneal twice a week for 6 weeks, versus no administration
  muscle strength (endurance) through a treadmill test: significant increase in muscle strength (endurance); also recorded: increased significantly
Sarcopenia mouse models [2]
  kidney function and muscle (from creatine, IL-6, cholesterol, UN and UA concentrations): kidney function and muscle improve
Sarcopenia mouse models [4]
  short term memory, long term memory, depression, activity level, social interaction, cognitive ability: short term memory, long term memory, depression, activity level, social interaction, and cognitive ability are improved
Sarcopenia mouse models [5]
  osteoporosis (from NTX concentration): osteoporosis is improved
C2C12 cells
  gene expression levels versus untreated cells: change in gene expression similar to Example 2
